Experimental findings from ChEMBL document CHEMBL1158871, “Minor Bioactive Dihydrophenanthrenes from Juncus effusus” (1997) are described below.

What all share (assay type): functional
Conditions in all cases: UTEX 1648, light or radiation study, read-out: GI

For assay [1], the system named is Selenastrum capricornutum. The experiment in a line: Antialgal activity against Selenastrum capricornutum UTEX 1648 assessed as growth inhibition at 5 uM exposed to 150 uEs'-1m'-2 irradiation under 16 hrs light/8 hrs dark photoperiod conditions relative to control.
In assay [2] the test system is Selenastrum capricornutum. Description: Antialgal activity against Selenastrum capricornutum UTEX 1648 assessed as growth inhibition at 10 uM exposed to 150 uEs'-1m'-2 irradiation under 16 hrs light/8 hrs dark photoperiod conditions relative to control.
Assay [3] has as its system Selenastrum capricornutum. Description: Antialgal activity against Selenastrum capricornutum UTEX 1648 assessed as growth inhibition at 0.1 mM exposed to 150 uEs'-1m'-2 irradiation under 16 hrs light/8 hrs dark photoperiod conditions relative to control.
In assay [4] the test system is Selenastrum capricornutum. Description: Antialgal activity against Selenastrum capricornutum UTEX 1648 assessed as growth inhibition at 50 uM exposed to 150 uEs'-1m'-2 irradiation under 16 hrs light/8 hrs dark photoperiod conditions relative to control.

Molecules are shown by their SMILES.

On to `COc1cc(CO)c2c(c1C)CCc1c-2ccc(O)c1C`, for which the inhibition of growth at 5 µM in assay [1] came to 0%. Moreover, the inhibition of growth at 10 µM in assay [2] is 18%. The inhibition of growth at 100 µM in assay [3] was found to be 80%. For the same molecule, the inhibition of growth at 50 µM in assay [4] came to 55%.

As to `C=Cc1cc(CO)cc2c1-c1ccc(O)c(C)c1CC2`, in assay [1], the inhibition of growth at 5 µM was found to be 0%. Further, the inhibition of growth at 10 µM in assay [2] is 0%. The inhibition of growth at 100 µM in assay [3] was 57%. Moreover, in assay [4], the inhibition of growth at 50 µM is 38%.

Consider `Cc1c(O)ccc2c1CCc1c(C)c(O)cc(C(C)O)c1-2` (stereo not drawn), for which the inhibition of growth at 5 µM in assay [1] turned out to be 5%. Further, the inhibition of growth at 10 µM in assay [2] amounted to 20%. For the same molecule, the inhibition of growth at 100 µM in assay [3] came out at 75%. The inhibition of growth at 50 µM in assay [4] was found to be 52%.

As for `Cc1cc(CO)c2c(c1)CCc1c-2ccc(O)c1C`, the inhibition of growth at 5 µM in assay [1] was determined as 7%. Also, the inhibition of growth at 10 µM in assay [2] was 20%. For the same molecule, the inhibition of growth at 100 µM in assay [3] came out at 80%. Further, the inhibition of growth at 50 µM in assay [4] was 50%.

Take `C=Cc1c(CO)ccc2c1-c1ccc(O)c(C)c1CC2`: the inhibition of growth at 5 µM in assay [1] was found to be 0%. Moreover, the inhibition of growth at 10 µM in assay [2] was 5%. Moreover, the inhibition of growth at 100 µM in assay [3] came to 64%. The inhibition of growth at 50 µM in assay [4] was 40%.

As to `Cc1cc2c(c3c1OC(O)C3O)-c1ccc(O)c(C)c1CC2` (stereo not drawn), in assay [1], the inhibition of growth at 5 µM was 0%. In assay [2], the inhibition of growth at 10 µM turned out to be 0%. In addition, in assay [3], the inhibition of growth at 100 µM is 20%. Further, the inhibition of growth at 50 µM in assay [4] came to 10%.

With `Cc1c(O)ccc2c1CCc1c(C)c(O)cc(CO)c1-2`, the inhibition of growth at 5 µM in assay [1] came out at 4%. Moreover, the inhibition of growth at 10 µM in assay [2] stood at 10%. Further, the inhibition of growth at 100 µM in assay [3] turned out to be 70%. In addition, the inhibition of growth at 50 µM in assay [4] was 40%.
